Source: publication PMC8834866, “2-Acetamido-2-deoxy-D-glucono-1,5-lactone Sulfonylhydrazones: Synthesis and Evaluation as Inhibitors of Human OGA and HexB Enzymes” (International Journal of Molecular Sciences, 2022)
Where “and” joins values, the source holds several entries; their conditions need not be identical. Identical values can stand only once.

Tests used:
OGA = conditions: cited from earlier work
HexA/B = target: HexA/B; parameters: method as in PMID 34186233; conditions: enzyme contains two predominant isozymes, Hex A and Hex B; cited from earlier work
HexB = conditions: cited from earlier work
hOGA = target: T1, hOGA (Homo sapiens, UniProt O60502); experiment: hOGA inhibition, 4-MU-GlcNAc fluorescent substrate, Dixon plots (competitive model); assay type: biochemical; conditions: for Ki(hHexB)/Ki(hOGA): ratio defines selectivity towards hOGA; for Ki: recombinant hOGA, 4-MU-GlcNAc, pH 7.5, 37 °C
T1 construct: The gene construct encoding the full-length human OGA fused to N-terminal His6-tag; His6 (N); made in house
T1 sequence (O60502 1-916): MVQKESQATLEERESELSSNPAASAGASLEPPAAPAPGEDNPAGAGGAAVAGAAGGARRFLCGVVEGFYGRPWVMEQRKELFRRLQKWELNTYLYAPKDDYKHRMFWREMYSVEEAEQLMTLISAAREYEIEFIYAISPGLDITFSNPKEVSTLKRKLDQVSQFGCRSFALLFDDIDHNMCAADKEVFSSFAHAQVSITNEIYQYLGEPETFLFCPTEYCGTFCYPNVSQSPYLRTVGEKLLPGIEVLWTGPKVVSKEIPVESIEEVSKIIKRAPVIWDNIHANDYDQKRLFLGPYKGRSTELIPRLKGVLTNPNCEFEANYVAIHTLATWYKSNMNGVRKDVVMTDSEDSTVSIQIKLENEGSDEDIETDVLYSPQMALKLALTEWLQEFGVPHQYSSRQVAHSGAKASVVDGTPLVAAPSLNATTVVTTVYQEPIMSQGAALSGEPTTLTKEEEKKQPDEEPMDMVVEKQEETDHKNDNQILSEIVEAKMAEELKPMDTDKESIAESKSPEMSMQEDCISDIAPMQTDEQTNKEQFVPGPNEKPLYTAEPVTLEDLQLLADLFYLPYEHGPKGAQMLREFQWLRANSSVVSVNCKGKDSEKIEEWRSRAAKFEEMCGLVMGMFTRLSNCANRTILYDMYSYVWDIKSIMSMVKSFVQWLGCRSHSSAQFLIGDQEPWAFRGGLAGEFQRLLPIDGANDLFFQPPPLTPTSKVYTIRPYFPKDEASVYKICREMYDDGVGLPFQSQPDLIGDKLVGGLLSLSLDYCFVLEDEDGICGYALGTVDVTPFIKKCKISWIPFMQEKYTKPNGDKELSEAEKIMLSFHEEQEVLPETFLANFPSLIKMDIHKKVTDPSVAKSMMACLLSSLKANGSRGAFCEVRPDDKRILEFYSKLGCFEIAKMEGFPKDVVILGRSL
Description: (§1) The inhibitory potency of compounds 5a–f was evaluated against recombinant hOGA and hHexB enzymes. The enzymes were prepared and purified as described previously. For inhibition of hOGA, fluorescent 4-MU-GlcNAc was used as the substrate. […] In the case of inhibition of hHexB, Michaelis–Menten kinetics were evaluated using pNP-GlcNAc as a colorimetric substrate. Inhibition constants (Ki) were determined by nonlinear regression analyses by employing the competitive inhibition model (cf. the Experimental section and Supplementary Materials).
(§2) The detailed protocol for the expression of hOGA and the subsequent purification procedure of the recombinant protein have been described in our previous work. The gene construct encoding the full-length human OGA fused to N-terminal His6-tag was kindly provided by Prof. D. Vocadlo (SFU, Burnaby, BC, Canada). Human β-N-acetylhexosaminidase B (hHexB) was expressed in Pichia pastoris, and the extracellularly produced enzyme was isolated according to the procedure described by Krejzová et al..
The inhibitory potency of compounds 5a–f was evaluated against recombinant enzymes hOGA and hHexB. In the case of hOGA inhibition, 4-MU-GlcNAc was used as a substrate at three concentrations (7 µM, 12 µM, and 25 µM) in the reaction mixtures containing 50 mM potassium phosphate buffer (pH 7.5), an inhibitor 5a–f in a final concentration of 0 to 750 nM, and 3 nM hOGA. In all cases, the enzyme and the inhibitors were preincubated at 37 °C, then the reaction was initiated by the addition of the substrate. All reactions were carried out in a fluorescence cuvette (Hellma Analytics, Müllheim, Germany), held in the thermostat cell holder of a Jasco FP-8200 fluorescence spectrophotometer (Easton, MD, USA) equipped with a Xe lamp light source. The excitation of the reactions was performed at […] and emission was detected at […] every 10 s for 10 min. All measurements were performed in triplicates. Initial velocities were determined and the reciprocal of initial velocities was plotted against inhibitor concentrations. The inhibitory mode of the compounds on hOGA was assessed by the Cornish–Bowden method, which involves the plotting of [S]/v0 vs. inhibitor concentrations. […] Inhibition constants (Ki) were determined according to the competitive model of the Dixon method by plotting the reciprocal of initial velocities vs. inhibitor concentrations. The intersection point of the linearly fitted lines gave Ki in nM.

hHexB = target: T2, hHexB (Homo sapiens, UniProt P07686); experiment: hHexB inhibition, pNP-GlcNAc colorimetric substrate, Michaelis–Menten kinetics; assay type: biochemical; conditions: recombinant hHexB, pH 5.0, 35 °C
T2 construct: made in house; host or cells: Pichia pastoris
T2 sequence (P07686 122-556): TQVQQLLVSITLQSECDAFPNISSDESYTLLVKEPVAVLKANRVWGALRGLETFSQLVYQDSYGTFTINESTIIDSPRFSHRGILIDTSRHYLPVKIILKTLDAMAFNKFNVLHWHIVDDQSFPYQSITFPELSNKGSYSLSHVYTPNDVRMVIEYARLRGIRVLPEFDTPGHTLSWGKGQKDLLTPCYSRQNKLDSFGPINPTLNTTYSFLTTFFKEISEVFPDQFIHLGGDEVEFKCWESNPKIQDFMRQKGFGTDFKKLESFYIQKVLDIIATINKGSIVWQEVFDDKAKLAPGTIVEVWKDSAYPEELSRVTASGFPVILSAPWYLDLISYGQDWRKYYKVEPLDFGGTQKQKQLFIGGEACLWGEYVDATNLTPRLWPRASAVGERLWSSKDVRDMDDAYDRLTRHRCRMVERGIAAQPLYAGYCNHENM
Description: as §1, §2
In the case of hHexB inhibition, Michaelis–Menten kinetics were evaluated using pNP-GlcNAc as a substrate. The kinetic reactions took place in Eppendorf tubes in a final volume of 400 μL containing 24 nM HexB, pNP-GlcNAc substrate in the range of 0.1–3 mM, and various inhibitor concentrations ranging from 0 to 300 nM in 50 mM citrate-phosphate buffer, pH 5.0. The reactions were incubated at 35 °C and then 50 μL samples were taken every 60 s. Samples were mixed with a quenching solution of 150 μL 0.1 M Na2CO3 and the absorbance of the solutions was measured at 420 nm by a Tecan Sunrise plate reader (Männedorf, Switzerland). All measurements were performed in triplicates. Initial velocities were determined from the data points by linear fit, and then nonlinear regression analyses were performed using the competitive inhibition model to calculate Ki values. GraphPad Prism software was used for the calculations.

Ki(hHexB)/Ki(hOGA) (hOGA)	Ki (hOGA)	Ki (hHexB) [nM]	melting point	SMILES	Ki (OGA) [nM]	Ki (HexA/B) [nM]	Ki (HexB) [nM]
				CC(=O)N[C@H]1/C(=N/NC(=O)Nc2ccccc2)O[C@H](CO)[C@@H](O)[C@@H]1O [II (Ph)]	190	205	
				CC(=O)N[C@H]1/C(=N/OC(=O)Nc2ccc(Br)cc2)O[C@H](CO)[C@@H](O)[C@@H]1O [I (4-Br-C6H4-)]	56		47
0.21	230 ± 17 nM	48 ± 4	175 to 176 °C (dec.)	CC(=O)N[C@H]1C(=NNS(=O)(=O)c2ccc(C(F)(F)F)cc2)O[C@H](CO)[C@@H](O)[C@@H]1O [5b, 2-Acetamido-2-deoxy-D-glucono-1,5-lactone p-Trifluoromethylbenzenesulfonylhydrazone]			
0.25	27 ± 7 nM	6.8 ± 1.8	145 to 147 °C	CC(=O)N[C@H]1/C(=N/NS(=O)(=O)c2cccc3ccccc23)O[C@H](CO)[C@@H](O)[C@@H]1O [5f, 2-Acetamido-2-deoxy-D-glucono-1,5-lactone 1-Naphthalenesulfonylhydrazone]			
				CC(=O)N[C@H]1/C(=N/NC(=O)Nc2ccc(C)cc2)O[C@H](CO)[C@@H](O)[C@@H]1O [II (4-Me-C6H4-)]	155	332	
0.27	78 ± 1 nM	21 ± 2	165 to 166 °C	CC(=O)N[C@H]1C(=NNS(=O)(=O)c2ccc(C)cc2)O[C@H](CO)[C@@H](O)[C@@H]1O [5a, 2-Acetamido-2-deoxy-D-glucono-1,5-lactone p-Toluenesulfonylhydrazone]			
	95 ± 11 nM	45 ± 3	175 to 177 °C	CC(=O)N[C@H]1C(=NNS(=O)(=O)c2ccc(F)cc2)O[C@H](CO)[C@@H](O)[C@@H]1O [5c, 2-Acetamido-2-deoxy-D-glucono-1,5-lactone p-Fluorobenzenesulfonylhydrazone]			
0.56	70 ± 3 nM	39 ± 2	180 to 182 °C (dec.)	CC(=O)N[C@H]1C(=NNS(=O)(=O)c2ccc(Cl)cc2)O[C@H](CO)[C@@H](O)[C@@H]1O [5d, 2-Acetamido-2-deoxy-D-glucono-1,5-lactone p-Chlorobenzenesulfonylhydrazone]			
				CC(=O)N[C@H]1/C(=N/OC(=O)Nc2ccc(C)cc2)O[C@H](CO)[C@@H](O)[C@@H]1O [I (4-Me-C6H4-)]	28		21
1	~30 nM and 30 nM	30 ± 3	172 to 173 °C	CC(=O)N[C@H]1C(=NNS(=O)(=O)c2ccc3ccccc3c2)O[C@H](CO)[C@@H](O)[C@@H]1O [5e, 2-Acetamido-2-deoxy-D-glucono-1,5-lactone 2-Naphthalenesulfonylhydrazone]			
				CC(=O)N[C@H]1/C(=N/NC(=O)Nc2ccc(Cl)cc2)O[C@H](CO)[C@@H](O)[C@@H]1O [II (4-Cl-C6H4-)]	83	170	

SMILES	Ki(hHexB)/Ki(hOGA) (hOGA)	Ki (hOGA)	Ki (hHexB) [nM]	melting point	Ki (OGA) [nM]	Ki (HexA/B) [nM]	Ki (HexB) [nM]
CC(=O)N[C@H]1C(=NNC(=O)Nc2ccc3ccccc3c2)O[C@H](CO)[C@@H](O)[C@@H]1O [2-acetamido-2-deoxy-D-glucono-1,5-lactone 4-(2-naphthyl)-semicarbazone]	1.3				36	47	
CC(=O)N[C@H]1/C(=N/OC(=O)Nc2ccccc2)O[C@H](CO)[C@@H](O)[C@@H]1O [PUGNAc]	0.8				46		36
